Assays:
[1] = system: reprogramming ASCs; assay: BDL-E5 live staining time course of episomally reprogrammed ASCs on MG; assay type: cell-based, human
Description: (§1) Episomal plasmids developed by Yamanaka's lab were obtained from Addgene: pCXLEhOct3/4-shp53-F (Addgene #27077), pCXLE-hSK (Addgene #27078), pCXLE-hUL (Addgene #27080) and pCXLE-EGFP (Addgene #27082) (Okita, et al. (2011). Nat Methods 8, 409-412). 1×10^6 cells were suspended together with 1 μg of each episomal vector in Nucleofector solution supplied in the Nucleofector Kit R (Lonza). Then the cells were transfected with the Program FF-113 on a Nucleofector 2b Device. The transfected cells were then cultured in ASC or DPSC medium (MSC medium) supplemented with 0.5 mM sodium butyrate, with daily media change. On Day 7 dpn, 1×10^5 viable cells were seeded over MEF feeders (GlobalStem) into one well of a 6-well plate for feeder-based iPS derivation; 2×10^5 viable cells were seeded for feeder-free iPS derivation into one well of a 6-well plate pre-coated with Matrigel (Corning). The next day, MSC medium was changed to feeder-based hES medium (DMEM/F12 supplemented with 20% knock out serum replacement, 1% GlutaMAX, 1% NEAA, Pen/Strep, 0.1 mM p-mercaptoethanol and 10 ng/ml b-FGF) or to feeder-free mTeSR1 (StemCell Technologies), supplemented with sodium butyrate. At 12 dpn, supplementation of sodium butyrate was stopped, and conditioned further with SMC4 cocktail (consisting of small molecules: PD0325901, CHIR99021, Thiazovivin, and SB431542 (FOCUS Biomolecules)) in hES medium/mTeSR1. This media supplement was continued until initial colony formation began.
(§2) Reprogrammed cells were immune-stained with fluorescent live cell stain TRA-1-60 (R&D Systems, GloLIVE NL557) as per manufacturer's instructions. After incubating with the live staining antibodies for 30 min and Hoechst 33342 for 10 min, cells were washed 3 times with PBS and images with the Cy5 and DAPI channels, respectively, were immediately captured.
(§3) Further experiments were carried out using BDL-E5. To determine whether BDL-E5 identifies the early stages of pluripotency, ASCs and DPSCs were reprogrammed using nucleofection of episomal vectors, and seeded onto MG-coated plates (feeder-free, viral-free reprogramming method). […]

[2] = system: reprogramming DPSCs; assay: BDL-E5 live staining time course of episomally reprogrammed DPSCs on MG; assay type: cell-based, human
Description: as §1, §2, §3

[3] = system: reprogramming DPSCs at 7 dpn; assay: Fluorescent subcellular organelle co-staining; assay type: cell-based, human; conditions: confocal; ER, Golgi, lysosome, mitochondria marker dyes
Source text: Reprogrammed DPSCs at 7 dpn on MG were stained for cell organelle marker dyes (Molecular Probes) for endoplasmic reticulum (ER) (ER-Tracker™ Green (BODIPY® FL Glibenclamide)), Golgi complex (BODIPY® FL C5-Ceramide (N-(4,4-Difluoro-5,7-Dimethyl-4-Bora-3a,4a-Diaza-s-Indacene-3-Pentanoyl)Sphingosine)), lysosome (LysoTracker® Green DND-26), or mitochondria (MitoTracker® Green FM). Confocal images were taken to visualize the staining.
To determine the subcellular organelle localization of BDL-E5 in reprogramming cells, 7 dpn DPSCs on MG were stained for BDL-E5 and organelle marker dyes for endoplasmic reticulum (ER), Golgi complex, lysosome, or mitochondria.

[4] = system: reprogramming DPSCs; assay: Staining of DPSCs reprogrammed with retroviral Yamanaka factors on MEF; assay type: cell-based, human; conditions: retroviral OCT4, SOX2, KLF4, C-MYC
Source text: (§4) iPS cells were also generated from DPSCs with the traditional protocol involving retroviral vectors expressing OCT4, SOX2, KLF4, and C-MYC (Sugii, et al. (2011). Nature Protoc 6(3):346-358). BJ human neonatal fibroblasts were reprogrammed using lentiviral OCT4, SOX2, KLF4, and C-MYC as described previously (Toh, et al. (2016). Cell Rep 15(12):2597-2607).
(§5) We also tested whether BDL-E5 worked for commonly used reprogramming methods and cell type. DPSCs were infected with retroviral vectors expressing four Yamanaka factors, and plated onto MEF. […] In addition, BJ human fibroblasts were reprogrammed with lentiviral Yamanaka factors.

[5] = system: BJ human fibroblasts; assay: Staining of BJ fibroblasts reprogrammed with lentiviral Yamanaka factors; assay type: cell-based
Source text: as §4, §5

[6] = system: reprogramming (RP) versus non-reprogramming (non-RP) DPSCs (DPSC1); assay: Signal-to-noise comparison of reprogramming versus non-reprogramming cells; assay type: cell-based, human
Description: FIG. 14: (A) Graph representing signal-to-noise ratios (arbitrary fluorescence units) on comparing reprogramming (RP) versus non-reprogramming (non-RP) DPSCs (DPSC1) stained with either CDy1 or BDL-E5. The fluorescence intensity was measured using ImageJ software. 100 cells per field (10×), 10 fields per well, 3 wells per probe were measured. […] denotes significance between RP and non-RP cells. (B) Proliferation assay of DPSC1 incubated with BDL-E5 (500 nM) for 2 to 5 days; represented as number of viable cells per cm^2 (n=3). (C) Proliferation assay of reprogramming DPSC1, 48 h after transfection with Scr CREB1, CREB1 OE or siCREB1; represented as number of viable cells per cm^2 (n=3).

[7] = Absorption and emission maxima of the probe; assay type: physicochemical
Description: The chemical properties of the BDL library are previously described (Jeong et al., 2015). BDL-E5 is based on 4,4-difluoro-4-bora-3a,4a-diaza-s-indacene (BODIPY), with calculated mass of 528.3 and absorption maximum/emission maximum of 578/599 nm. Primary, secondary and tertiary screening of fluorescent probes on AiPS, ASCs, DiPS and DPSCs were performed as described previously (Im, et al. (2010). Angew Chem Int Ed Engl 49, 7497-7500; Kang, et al. (2011). Nat Protoc 6, 1044-1052) and in the Results section. Unless described otherwise, BDL-E5 and CDy1 images were acquired by the Tetramethylrhodamine (TRITC) channel of ImageXpress Micro High-Content Imaging System, which had the Adaptive Background Correction function enabled.

COc1cc(F)c(/C=C/c2cc(C)c3n2[B-](F)(F)[N+]2=C(CCC(=O)NCCN(C)C)C=CC2=C3)cc1OC [BDL-E5]
intensity of fluorescence of staining at 7, 14, 21, 28 dpn ([1]; iPS colonies formed from ASCs): increased with increasing time
fate of stained cells tracked in the same field of view until colony formation ([1]; reprogrammed ASCs, staining every 48 h, 10-24 dpn): only cells staining positive for BDL-E5 formed iPS colonies
time at which positive cells/colonies were found ([1]; reprogramming ASCs, MG-coated plates, episomal feeder-free): around 14 dpn
intensity of fluorescence of staining at 7, 14, 21, 28 dpn ([2]; iPS colonies formed from DPSCs): increased with increasing time
fate of stained cells tracked in the same field of view until colony formation ([2]; reprogrammed DPSCs, staining every 48 h, 10-24 dpn): only cells staining positive for BDL-E5 formed iPS colonies
time at which positive cells/colonies were found ([2]; reprogramming DPSCs, MG-coated plates, episomal feeder-free): 7 dpn
subcellular organelle localization [3]: co-localize significantly with Golgi complex staining
earliest time of staining of reprogramming cells [4]: 7 dpi
staining of reprogramming versus non-reprogramming cells [5]: successfully stained reprogramming, but not non-reprogramming cells
staining strength compared with TRA-1-60 [5]: stronger than that of TRA-1-60
signal toward reprogramming cells and background staining against non-reprogramming cells [6]: low non-specific staining against non-reprogramming cells
absorption maximum [7]: 578 nm
emission maximum [7]: 599 nm
